From patent US6713475B2, “Tricyclic benzodiazepines as vasopressin receptor antagonists” (Ortho-McNeil Pharmaceutical, Inc., priority 1999, dated 2004)
Structures can show the parent of a compound that is named as a salt.

Experiments:
[1] = target: T1, human V-1 receptor (Homo sapiens, UniProt P37288); experiment: In vitro recombinant vasopressin receptor binding assay (V1 Bdg), displacement of 3H-arginine vasopressin; conditions: for inhibition at 0.1 µM: read-out: V1 Bdg (% inh, 0.1 uM); for V1 Bdg % inh: 1 uM; for inhibition at 10 µM: read-out: V1 Bdg % inh
T1 construct: expressed in transfected cells; host or cells: HEK-293
Summary of the method: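 Membranes from HEK-293 cells bearing cloned human V-1 receptor, incubated 1 h at room temperature with 0.65-0.75 nM 3H-arginine-8-vasopressin in pH 7.5 Tris/MgCl2/BSA buffer with protease inhibitors. Filtration onto GF/C, scintillation count. Non-specific binding with 1.25 uM arginine-8-vasopressin.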

[2] = target: V2 (Homo sapiens, UniProt P30518); experiment: In vitro recombinant vasopressin receptor binding assay (V2 Bdg), displacement of 3H-arginine vasopressin; parameters: expressed in transfected cells; host or cells: HEK-293; conditions: for IC50: membrane with cloned human V-2 receptor (HEK-293); for V2 Bdg % inh: 0.1 uM, printed in parentheses in place of IC50
Summary of the method: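 Displacement of ³H-vasopressin from membranes of HEK-293 cells bearing cloned human V-2 receptor, incubated with test compound one hour at room temperature. Bound label was collected on PEI-soaked GF/C filters, washed with cold saline/0.05% Tween 20, and counted by scintillation.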

Sequence of V2 (P30518 whole entry): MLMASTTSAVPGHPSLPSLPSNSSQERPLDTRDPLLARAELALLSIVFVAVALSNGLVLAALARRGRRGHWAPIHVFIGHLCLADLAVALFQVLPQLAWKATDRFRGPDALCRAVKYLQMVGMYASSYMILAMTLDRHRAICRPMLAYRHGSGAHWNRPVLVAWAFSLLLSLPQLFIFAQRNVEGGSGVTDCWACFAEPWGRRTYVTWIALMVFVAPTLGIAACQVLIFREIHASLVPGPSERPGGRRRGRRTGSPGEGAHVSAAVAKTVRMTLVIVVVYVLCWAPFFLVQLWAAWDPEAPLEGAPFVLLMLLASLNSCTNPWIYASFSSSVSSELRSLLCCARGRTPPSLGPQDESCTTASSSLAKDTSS
T1 sequence (P37288 whole entry): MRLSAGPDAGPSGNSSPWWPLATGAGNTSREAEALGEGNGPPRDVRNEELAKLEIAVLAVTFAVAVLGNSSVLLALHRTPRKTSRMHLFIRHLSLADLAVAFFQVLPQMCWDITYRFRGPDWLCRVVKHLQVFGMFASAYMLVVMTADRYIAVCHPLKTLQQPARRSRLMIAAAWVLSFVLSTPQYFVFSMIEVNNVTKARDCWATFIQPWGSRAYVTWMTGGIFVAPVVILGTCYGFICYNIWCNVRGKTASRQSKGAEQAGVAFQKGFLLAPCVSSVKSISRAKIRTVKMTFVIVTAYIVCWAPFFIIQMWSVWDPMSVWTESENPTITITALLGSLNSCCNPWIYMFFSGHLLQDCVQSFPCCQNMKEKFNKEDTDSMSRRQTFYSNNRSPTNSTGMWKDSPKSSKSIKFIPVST

SMILES | melting point | IC50 [2] [nM] | other results
O=C(Nc1ccc(C(=O)N2CC3CSCCN3Cc3cc(F)c(F)cc32)cc1)c1ccccc1-c1ccccc1 (racemic) (as salt: HCl) [Compound 35, (RS)-2-Phenyl-N-[4-(8,9-difluoro-1,3,4,12a-tetrahydro-6H-[1,4]thiazino[4,3-a][1,4]-benzodiazepin-11(12H)-yl-carbonyl)phenyl]benzamide] | 194 to 199 °C | – | –
O=C(Nc1ccc(C(=O)N2C[C@H]3CSCCN3Cc3ccccc32)c(Cl)c1)c1ccccc1-c1ccccc1 (as salt: HCl) [Compound 47, (S)-2-Phenyl-N-[3-chloro-4-(1,3,4,12a-tetrahydro-6H-[1,4]thiazino[4,3-a][1,4]-benzodiazepin-11(12H)-yl-carbonyl)phenyl]benzamide] | 192 to 197 °C | – | –
Cc1cccc(C(=O)Nc2ccc(C(=O)N3CC4COCCN4Cc4ccccc43)c(Cl)c2)c1C (racemic) [Compound 11, (RS)-2,3-Dimethyl-N-[3-chloro-4-(1,3,4,12a-tetrahydro-6H-[1,4]oxazino[4,3-a][1,4]-benzodiazepin-11(12H)-yl-carbonyl)phenyl]benzamide] | – | 8 | inhibition at 0.1 µM [1]: 11%
Cc1ccc(F)c(C(=O)Nc2ccc(C(=O)N3CC4CN(C)CCN4Cc4ccccc43)c(Cl)c2)c1 (racemic) [Compound 96, (RS)-2-Fluoro-5-methyl-N-[3-chloro-4-(1,3,4,12a-tetrahydro-2-methyl-6H-[1,4]pyrazino[4,3-a][1,4]-benzodiazepin-11(12H)-yl-carbonyl)phenyl]benzamide] | – | – | V1 Bdg % inh [1]: (9%/1 uM); V2 Bdg % inh [2]: (3%/0.1 uM)
O=C(Nc1ccc(C(=O)N2C[C@H]3COCCN3Cc3ccccc32)c(Cl)c1)c1ccccc1-c1ccc(O)cc1 [Compound 5, (S)-2-(4-Hydroxyphenyl)-N-[3-chloro-4-(1,3,4,12a-tetrahydro-6H-[1,4]oxazino[4,3-a][1,4]-benzodiazepin-11(12H)-yl-carbonyl)phenyl]benzamide] | – | 9 | inhibition at 0.1 µM [1]: 29%
Cc1cc(C(=O)N2CC3CN(C)CCN3Cc3ccccc32)ccc1NC(=O)c1ccccc1-c1ccccc1 (racemic) [Compound 78, (RS)-2-Phenyl-N-[2-methyl-4-(1,3,4,12a-tetrahydro-2-methyl-6H-[1,4]pyrazino[4,3-a][1,4]-benzodiazepin-11(12H)-yl-carbonyl)phenyl]benzamide] | – | – | V1 Bdg % inh [1]: (2%/1 uM); V2 Bdg % inh [2]: (5%/0.1 uM)
Cc1ccccc1C(=O)Nc1ccc(C(=O)N2CC3COCCN3Cc3ccccc32)c(C)c1 (racemic) [Compound 27, (RS)-2-M ethyl-N-[3-methyl-4-(1,3,4,12a-tetrahydro-6H-[1,4]oxazino[4,3-a][1,4]-benzodiazepin-11(12H)-yl-carbonyl)phenyl]benzamide] | – | 13 | inhibition at 0.1 µM [1]: 7%
COc1ccc2c(c1)CN1CCSCC1CN2C(=O)c1ccc(NC(=O)c2ccccc2-c2ccccc2)cc1 (racemic) [Compound 31, (RS)-2-Phenyl-N-[4-(8-methoxy-1,3,4,12a-tetrahydro-6H-[1,4]thiazino[4,3-a][1,4]-benzodiazepin-11(12H)-yl-carbonyl)phenyl]benzamide] | – | 43 | inhibition at 10 µM [1]: 27%
O=C(Nc1ccc(C(=O)N2CC3CSCCN3Cc3cc(F)c(F)cc32)cc1)c1ccccc1-c1ccccc1 (racemic) [Compound 35, (RS)-2-Phenyl-N-[4-(8,9-difluoro-1,3,4,12a-tetrahydro-6H-[1,4]thiazino[4,3-a][1,4]-benzodiazepin-11(12H)-yl-carbonyl)phenyl]benzamide] | – | 38 | inhibition at 10 µM [1]: 15%
O=C(Nc1ccc(C(=O)N2CC3COCCN3Cc3ccccc32)c(Cl)c1)c1ccccc1SC(F)F (racemic) [Compound 19, (RS)-2-(Difluoromethylthio)-N-[3-chloro-4-(1,3,4,12a-tetrahydro-6H-[1,4]oxazino[4,3-a][1,4]-benzodiazepin-11(12H)-yl-carbonyl)phenyl]benzamide] | – | 27 | inhibition at 0.1 µM [1]: 24%
CN1CCN2Cc3ccccc3N(C(=O)c3ccc(NC(=O)c4ccccc4-c4ccccc4)cc3F)CC2C1 (racemic) [Compound 70, (RS)-2-Phenyl-N-[3-fluoro-4-(1,3,4,12a-tetrahydro-2-methyl-6H-[1,4]pyrazino[4,3-a][1,4]-benzodiazepin-11(12H)-yl-carbonyl)phenyl]benzamide] | – | – | V1 Bdg % inh [1]: (9%/1 uM); V2 Bdg % inh [2]: (44%/0.1 uM)

More lines, main results first:

melting point | IC50 [2] [nM] | SMILES | other results
> 210 °C (dec.) | – | O=C(Nc1ccc(C(=O)N2C[C@H]3COCCN3Cc3ccccc32)c(Cl)c1)c1ccccc1-c1ccccc1 (as salt: HCl) (hydrate or solvate) [Compound 4, (S)-2-Phenyl-N-[3-chloro-4-(1,3,4,12a-tetrahydro-6H-[1,4]oxazino[4,3-a][1,4]-benzodiazepin-11(12H)-yl-carbonyl)phenyl]benzamide] | –
191 to 196 °C | – | Cc1ccc2c(c1)CN1CCSCC1CN2C(=O)c1ccc(NC(=O)c2ccccc2-c2ccccc2)cc1 (racemic) (as salt: HCl) [Compound 36, (RS)-2-Phenyl-N-[4-(8-methyl-1,3,4,12a-tetrahydro-6H-[1,4]thiazino[4,3-a][1,4]-benzodiazepin-11(12H)-yl-carbonyl)phenyl]benzamide] | –
177 to 180 °C | – | O=C(Nc1ccc(C(=O)N2CC3CSCCN3Cc3cc(F)ccc32)cc1)c1ccccc1-c1ccccc1 (racemic) (as salt: HCl) [Compound 32, (RS)-2-Phenyl-N-[4-(8-fluoro-1,3,4,12a-tetrahydro-6H-[1,4]thiazino[4,3-a][1,4]-benzodiazepin-11(12H)-yl-carbonyl)phenyl]benzamide] | –
191 to 193 °C | – | O=C(Nc1ccc(C(=O)N2CC3CCCCN3Cc3ccccc32)cc1)c1ccccc1-c1ccccc1 (stereo not shown) (as salt: HCl) [Compound 1, 10-[4-[[(2-Biphenyl)carbonyl]amino]benzoyl]-10,11-dihydro-5H-piperidino[2,1-c][1,4]benzodiazepine] | –
188 to 195 °C (dec.) | – | O=C(Nc1ccc(C(=O)N2CC3COCCN3Cc3ccccc32)cc1O)c1ccccc1-c1ccccc1 (racemic) (as salt: HCl) [Compound 22, (RS)-2-Phenyl-N-[2-hydroxy-4-(1,3,4,12a-tetrahydro-6H-[1,4]oxazino[4,3-a][1,4]-benzodiazepin-11(12H)-yl-carbonyl)phenyl]benzamide] | –
185 to 188 °C (dec.) | – | O=C(Nc1ccc(C(=O)N2CC3COCCN3Cc3ccccc32)c(O)c1)c1ccccc1-c1ccccc1 (racemic) (as salt: HCl) [Compound 23, (RS)-2-Phenyl-N-[3-hydroxy-4-(1,3,4,12a-tetrahydro-6H-[1,4]oxazino[4,3-a][1,4]-benzodiazepin-11(12H)-yl-carbonyl)phenyl]benzamide] | –
– | 8 | O=C(Nc1ccc(C(=O)N2CC3COCCN3Cc3ccccc32)cc1)c1ccccc1-c1ccccc1 (racemic) [Compound 20, (RS)-2-Phenyl-N-[4-(1,3,4,12a-tetrahydro-6H-[1,4]oxazino[4,3-a][1,4]-benzodiazepin-11(12H)-yl-carbonyl)phenyl]benzamide] | inhibition at 0.1 µM [1]: 69%
